# Test results published in ChEMBL document CHEMBL6121005 (Eur J Med Chem, 2025).
# pIC50: −log10 of the molar value. Calls of active or inactive are those of the source. The rule behind the calls is not given here.
# What was measured:
# [1] = molecular target: T1, Cholinesterase (Homo sapiens, UniProt P06276); test: Inhibition of human serum BuChE using butyrylthiocholine iodide as substrate at 10 uM incubated for 10 mins followed by substrate addition by DTNB reagent based Ellman's method relative to control
# T1 sequence (P06276 whole entry): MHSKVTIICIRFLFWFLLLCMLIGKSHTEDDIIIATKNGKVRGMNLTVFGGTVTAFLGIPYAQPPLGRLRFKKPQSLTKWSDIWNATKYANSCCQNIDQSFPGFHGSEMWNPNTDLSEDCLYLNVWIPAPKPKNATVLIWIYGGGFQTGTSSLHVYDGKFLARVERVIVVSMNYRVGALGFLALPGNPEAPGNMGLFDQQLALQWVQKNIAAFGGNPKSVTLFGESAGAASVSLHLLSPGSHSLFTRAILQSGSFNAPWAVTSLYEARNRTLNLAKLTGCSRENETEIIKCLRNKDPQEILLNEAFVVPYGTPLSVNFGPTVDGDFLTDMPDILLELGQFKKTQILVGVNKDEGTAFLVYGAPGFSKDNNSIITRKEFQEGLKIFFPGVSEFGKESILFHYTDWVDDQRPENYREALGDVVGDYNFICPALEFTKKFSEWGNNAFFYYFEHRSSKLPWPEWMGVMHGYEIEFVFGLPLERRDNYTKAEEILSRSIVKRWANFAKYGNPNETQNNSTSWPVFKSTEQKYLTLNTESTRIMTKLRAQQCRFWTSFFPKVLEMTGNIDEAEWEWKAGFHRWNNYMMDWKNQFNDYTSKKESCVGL
# [2] = molecular target: T1, Cholinesterase; test: Inhibition of human serum BuChE using butyrylthiocholine iodide as substrate incubated for 10 mins followed by substrate addition by DTNB reagent based Ellman's method
# [3] = molecular target: Acetylcholinesterase (Homo sapiens, UniProt P22303); test: Inhibition of human erythrocytes AChE measured after 10 mins by Ellman's method
# Acetylcholinesterase, sequence (P22303 whole entry): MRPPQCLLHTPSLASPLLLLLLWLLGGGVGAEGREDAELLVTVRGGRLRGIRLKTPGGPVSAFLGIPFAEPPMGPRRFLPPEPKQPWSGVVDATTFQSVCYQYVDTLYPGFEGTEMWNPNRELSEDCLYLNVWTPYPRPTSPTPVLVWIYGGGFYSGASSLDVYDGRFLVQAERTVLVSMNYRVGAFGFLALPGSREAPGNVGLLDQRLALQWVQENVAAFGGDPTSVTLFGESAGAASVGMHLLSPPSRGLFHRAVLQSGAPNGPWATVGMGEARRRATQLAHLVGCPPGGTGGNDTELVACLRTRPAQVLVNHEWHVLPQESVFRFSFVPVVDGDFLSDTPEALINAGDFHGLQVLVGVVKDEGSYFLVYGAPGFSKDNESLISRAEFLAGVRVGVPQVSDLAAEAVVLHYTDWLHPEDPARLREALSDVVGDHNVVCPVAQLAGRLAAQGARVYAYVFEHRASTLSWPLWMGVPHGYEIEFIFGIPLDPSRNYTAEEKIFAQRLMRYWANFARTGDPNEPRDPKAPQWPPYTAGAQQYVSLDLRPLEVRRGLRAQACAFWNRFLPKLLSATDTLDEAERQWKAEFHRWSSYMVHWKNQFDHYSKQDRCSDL
# [4] = tested on: PC-12; test: Cytoprotective against rat PC12 cells assessed as cell viability at 50 uM preincubated for 24 hrs and measured after 4 hrs by CCK-8 assay; assay type: functional, cell-based
# [5] = tested on: PC-12; test: (§1) Neuroprotective activity against H2O2-induced rat PC12 cells assessed as protection against H2O2-induced apoptosis by measuring viable cells at 50 uM pretreated for 2 hrs followed by H2O2 addition and measured after 24 hrs by Annexin V-FITC/PI staining based flow cytometry analysis (reference value: 90.8 %); assay type: functional; settings: time 26 hrs
# [6] = tested on: PC-12; test: as §1, with “early apoptotic” for “viable”, “0.88” for “90.8”; assay type: functional; settings: time 26 hrs
# [7] = tested on: PC-12; test: as §1, with “late apoptotic” for “viable”, “7.26” for “90.8”; assay type: functional; settings: time 26 hrs
# [8] = tested on: PC-12; test: as §1, with “necrotic” for “viable”, “0.99” for “90.8”; assay type: functional; settings: time 26 hrs
# [9] = Inhibition of H2O2-induced ROS release in rat PC12 cells assessed as mean fluorescence intensity at 50 uM preincubated for 2 hrs followed by H2O2 addition and measured after 24 hrs by DCFH-DA based flow cytometry analysis (reference value: 23904); assay type: functional, PC-12; settings: time 26 hrs
# [10] = Cytotoxicity against rat PC12 cells assessed as cell viability at 50 uM preincubated for 24 hrs and measured after 4 hrs by CCK-8 assay; assay type: toxicity, cell-based, PC-12; settings: time 28 hrs, read-out: Activity
# [11] = tested on: Mus musculus; test: Antialzheimer activity against amyloid beta (1 to 42)-induced ICR mouse memory impairment model assessed as mean escape latency at 2.5 to 10 mg/kg, po administered daily and measured after 15 to 19 days by Morris water maze test; assay type: functional, organism-based; settings: dose 2.5-10 mg/kg, time 15-19 day
# [12] = tested on: Mus musculus; test: Antialzheimer activity against amyloid beta (1 to 42)-induced ICR mouse memory impairment model assessed as decrease in movement distance at 2.5 to 10 mg/kg, po administered daily and measured after 15 to 19 days by Morris water maze test; assay type: functional, organism-based; settings: dose 2.5-10 mg/kg, time 15-19 day
# [13] = tested on: Mus musculus; test: Antialzheimer activity against amyloid beta (1 to 42)-induced ICR mouse cognitive deficit model assessed as increase in alternation performance at 5 mg/kg, po administered daily and measured on day 12 by Y-maze test relative to control; assay type: functional; settings: time 12 day
# [14] = tested on: Mus musculus; test: Antialzheimer activity in amyloid beta (1 to 42 residues) induced ICR mouse memory impairment model assessed as increase in trajectory after platform removal at 2.5 to 10 mg/kg, po administered daily and measured after 15 to 19 days by Morris water maze test; assay type: functional, organism-based; settings: dose 2.5-10 mg/kg, time 15-19 day
# [15] = tested on: Mus musculus; test: Antialzheimer activity against scopolamine-induced ICR mouse cognitive deficit model assessed as latency time at 2.5 to 10 mg/kg, po administrated daily and measured on initial day of training by Morris water maze test; assay type: functional; settings: dose 2.5-10 mg/kg
# [16] = tested on: Mus musculus; test: Antialzheimer activity against scopolamine-induced ICR mouse cognitive deficit model assessed as decrease in latency time at 2.5 to 10 mg/kg, po administrated daily and measured on last day of training by Morris water maze test; assay type: functional, organism-based; settings: dose 2.5-10 mg/kg
# [17] = tested on: Mus musculus; test: Antialzheimer activity against scopolamine-induced ICR mouse cognitive deficit model assessed as decrease in movement distance at 2.5 to 10 mg/kg, po administrated daily and measured on last day of training by Morris water maze test; assay type: functional, organism-based; settings: dose 2.5-10 mg/kg
# [18] = tested on: Mus musculus; test: Antialzheimer activity in scopolamine-induced ICR mouse assessed as increase in trajectory within target quadrant at 2.5 to 10 mg/kg, po administered daily and measured after 16 to 20 days by Morris water maze test; assay type: functional, organism-based; settings: dose 2.5-10 mg/kg, time 16-20 day
# [19] = tested on: Mus musculus; test: Antialzheimer activity in amyloid beta (1 to 42 residues) induced ICR mouse assessed as increase in distance travelled within target quadrant at 5 mg/kg, po administered daily and measured after 15 to 19 days by Morris water maze test; assay type: functional, organism-based; settings: time 15-19 day
# [20] = tested on: Mus musculus; test: Antialzheimer activity in amyloid beta (1 to 42 residues) induced ICR mouse assessed as increase in time spent within target quadrant at 5 mg/kg, po administered daily and measured after 15 to 19 days by Morris water maze test; assay type: functional, organism-based; settings: time 15-19 day
# [21] = tested on: PC-12; test: Antioxidant activity against H2O2-induced toxicity in rat PC12 cells at 12.5 uM preincubated for 2 hrs and measured after 24 hrs by CCK-8 assay; assay type: functional, cell-based; settings: time 26.0 hrs
compound,measurement,setting,value
COc1cccc(Cc2ccc(CO[C@H]3C=C[C@@]45CCN(C)Cc6ccc(OC)c(c64)O[C@H]5C3)nc2)c1,inhibition,[1],88.2%
same,pIC50,[2],5.97
COc1ccc2c3c1O[C@H]1C[C@@H](OC(=O)NCc4cc(F)cc(F)c4)C=C[C@@]31CCN(C)C2,inhibition,[1],4.56%
COc1ccc2c3c1O[C@H]1C[C@@H](OC(=O)NCc4ccccc4C)C=C[C@@]31CCN(C)C2,inhibition,[1],9.54%
COc1ccc2c3c1O[C@H]1C[C@@H](OC(=O)NC4CCN(Cc5cccc(F)c5)CC4)C=C[C@@]31CCN(C)C2,inhibition,[1],18.6%
same,pIC50,[3],6.38
same,Activity,[4],Active
same,Activity,[5],82.7%
same,Activity,[6],5.71%
same,Activity,[7],10.3%
same,Activity,[8],1.27%
same,Flu intensity,[9],52051
same,"viability at 4 h, 50 µM",[10],> 90%
COc1cc(CN2CCC(NC(=O)O[C@H]3C=C[C@@]45CCN(C)Cc6ccc(OC)c(c64)O[C@H]5C3)CC2)cc(OC)c1,inhibition,[1],12.9%
COc1ccc2c3c1O[C@H]1C[C@@H](OCc4ccc(Cc5cccc(F)c5)cn4)C=C[C@@]31CCN(C)C2,inhibition,[1],92.3%
same,pIC50,[2],6.13
COc1ccc2c3c1O[C@H]1C[C@@H](OC(=O)NCc4ccc5ccccc5c4)C=C[C@@]31CCN(C)C2,inhibition,[1],6.44%
COc1ccc2c3c1O[C@H]1C[C@@H](OC(=O)NC4CCN(Cc5ccc(C#N)cc5)CC4)C=C[C@@]31CCN(C)C2,inhibition,[1],21.3%
COc1ccc2c3c1O[C@H]1C[C@@H](OC(=O)NCc4ccc(C)cc4)C=C[C@@]31CCN(C)C2,inhibition,[1],4.99%
COc1ccc2c3c1O[C@H]1C[C@@H](OC(=O)NCc4ccccc4)C=C[C@@]31CCN(C)C2,inhibition,[1],10.4%
COc1ccc2c3c1O[C@H]1C[C@@H](OC(=O)NCc4ccc(F)cc4)C=C[C@@]31CCN(C)C2,inhibition,[1],12.7%
COc1ccc2c3c1O[C@H]1C[C@@H](OC(=O)NCc4ccc5[nH]ccc5c4)C=C[C@@]31CCN(C)C2,inhibition,[1],3.54%
COc1ccc2c3c1O[C@H]1C[C@@H](OC(=O)NCc4ccc(F)cc4F)C=C[C@@]31CCN(C)C2,inhibition,[1],13.5%
COc1ccc2c3c1O[C@H]1C[C@@H](OCc4ccc(Cc5cccc(Cl)c5)cn4)C=C[C@@]31CCN(C)C2,inhibition,[1],90.5%
same,pIC50,[3],5.47
same,pIC50,[2],6.04
same,Activity,[4],Active
same,Activity,[5],72.4%
same,Activity,[6],10.9%
same,Activity,[7],15%
same,Activity,[8],1.45%
same,Flu intensity,[9],88808
same,"viability at 4 h, 50 µM",[10],> 90%
COc1ccc2c3c1O[C@H]1C[C@@H](OC(=O)NC4CCN(Cc5ccc([N+](=O)[O-])cc5)CC4)C=C[C@@]31CCN(C)C2,inhibition,[1],24.6%
COc1ccc2c3c1O[C@H]1C[C@@H](OC(=O)NCc4ccccc4F)C=C[C@@]31CCN(C)C2,inhibition,[1],18.4%
COc1ccc(Cc2ccc(CO[C@H]3C=C[C@@]45CCN(C)Cc6ccc(OC)c(c64)O[C@H]5C3)nc2)cc1,inhibition,[1],87%
same,pIC50,[2],5.88
COc1ccc2c3c1O[C@H]1C[C@@H](OC(=O)NCc4cccc(F)c4)C=C[C@@]31CCN(C)C2,inhibition,[1],14.6%
COc1ccc2c3c1O[C@H]1C[C@@H](OC(=O)NC4CCN(Cc5ccccc5F)CC4)C=C[C@@]31CCN(C)C2,inhibition,[1],21.6%
same,pIC50,[3],6.39
COc1ccc2c3c1O[C@H]1C[C@@H](OC(=O)NCc4ccc(C#N)cc4)C=C[C@@]31CCN(C)C2,inhibition,[1],2.57%
COc1ccccc1Cc1ccc(CO[C@H]2C=C[C@@]34CCN(C)Cc5ccc(OC)c(c53)O[C@H]4C2)nc1,inhibition,[1],84.4%
same,pIC50,[3],5.50
same,pIC50,[2],5.57
COc1ccc2c3c1O[C@H]1C[C@@H](OCc4ccc(Cc5ccc(C)cc5)cn4)C=C[C@@]31CCN(C)C2,inhibition,[1],87.4%
same,pIC50,[2],5.87
COc1ccc2c3c1O[C@H]1C[C@@H](OCc4ccc(Cc5ccccc5)cn4)C=C[C@@]31CCN(C)C2,inhibition,[1],91.2%
same,pIC50,[2],5.82
COc1ccc2c3c1O[C@H]1C[C@@H](OCc4ccc(Cc5ccc(F)cc5)cn4)C=C[C@@]31CCN(C)C2,inhibition,[1],90.3%
same,pIC50,[2],6.00
COc1ccc2c3c1O[C@H]1C[C@@H](OC(=O)NCc4ccc(C(F)(F)F)cc4)C=C[C@@]31CCN(C)C2,inhibition,[1],14.9%
COc1ccc2c3c1O[C@H]1C[C@@H](O)C=C[C@@]31CCN(C)C2 [GALANTAMINE],Activity,[4],Active
same,Activity,[5],70.8%
same,Activity,[6],11.5%
same,Activity,[7],17.3%
same,Activity,[8],1.89%
same,Flu intensity,[9],89205
same,Activity,[11],Active
same,Activity,[12],Active
same,Activity,[13],72.92%
same,Activity,[14],Active
same,Time,[15],60 s
same,Activity,[16],Active
same,Activity,[17],Active
same,Activity,[18],Active
same,Activity,[19],Active
same,Activity,[20],Active
COc1ccc2c3c1O[C@H]1C[C@@H](OC(=O)NC4CCN(Cc5ccc(F)cc5F)CC4)C=C[C@@]31CCN(C)C2,inhibition,[1],19.9%
same,pIC50,[3],5.92
COc1ccc2c3c1O[C@H]1C[C@@H](OC(=O)NC4CCN(Cc5ccc(Cl)cc5)CC4)C=C[C@@]31CCN(C)C2,inhibition,[1],30.2%
COc1ccc2c3c1O[C@H]1C[C@@H](OC(=O)NCc4ccc([N+](=O)[O-])cc4)C=C[C@@]31CCN(C)C2,inhibition,[1],6.23%
COc1ccc2c3c1O[C@H]1C[C@@H](OC(=O)NC4CCN(Cc5cccc(C(F)(F)F)c5)CC4)C=C[C@@]31CCN(C)C2,inhibition,[1],25.1%
same,pIC50,[3],6.22
COc1ccc2c3c1O[C@H]1C[C@@H](OC(=O)NC4CCN(Cc5ccc(F)cc5)CC4)C=C[C@@]31CCN(C)C2,inhibition,[1],21%
same,pIC50,[3],6.40
COc1ccc2c3c1O[C@H]1C[C@@H](OC(=O)NC4CCN(Cc5ccccc5)CC4)C=C[C@@]31CCN(C)C2,inhibition,[1],29.2%
same,pIC50,[3],6.43
same,Activity,[21],Dose-dependent-effect
same,Activity,[4],Active
same,Activity,[5],79.3%
same,Activity,[6],8.66%
same,Activity,[7],10.7%
same,Activity,[8],1.35%
same,Flu intensity,[9],76256
same,"viability at 4 h, 50 µM",[10],> 90%
COc1ccc(CNC(=O)O[C@H]2C=C[C@@]34CCN(C)Cc5ccc(OC)c(c53)O[C@H]4C2)cc1,inhibition,[1],2.97%
COc1ccc2c3c1O[C@H]1C[C@@H](OC(=O)NC4CCN(Cc5ccc(C)cc5)CC4)C=C[C@@]31CCN(C)C2,inhibition,[1],28.7%
Oc1ccc(/C=C/c2cc(O)cc(O)c2)cc1 [RESVERATROL],Activity,[5],88.3%
same,Activity,[6],3.58%
same,Activity,[7],6.38%
same,Activity,[8],1.79%
same,Flu intensity,[9],29540
COc1ccc2c3c1O[C@H]1C[C@@H](OC(=O)NC4CCN(Cc5ccc(OC(F)(F)F)cc5)CC4)C=C[C@@]31CCN(C)C2,inhibition,[1],26%
same,pIC50,[3],6.35
COc1ccc2c3c1O[C@H]1C[C@@H](OCc4ccc(Cc5ccc(Cl)cc5)cn4)C=C[C@@]31CCN(C)C2,inhibition,[1],88.7%
same,pIC50,[2],5.99
COc1ccc2c3c1O[C@H]1C[C@@H](OC(=O)NCc4ccc(OC(F)(F)F)cc4)C=C[C@@]31CCN(C)C2,inhibition,[1],18.2%
